According to the NIST ThermoML archive (doi:10.1016/j.jct.2006.03.007):

Experiment: molar heat capacity at constant pressure
Settings: 101.33 kPa, Crystal

O=C(O)c1cccc(C(=O)O)n1 [pyridine-2,6-dicarboxylic acid]
Settings | molar heat capacity at constant pressure [J/K/mol]
84.05 K | 56.42
86.4 K | 56.44
88.71 K | 56.5
90.97 K | 56.59
93.19 K | 56.71
95.37 K | 56.85
97.51 K | 57.03
99.63 K | 57.23
101.72 K | 57.46
103.77 K | 57.71
105.81 K | 57.98
107.81 K | 58.27
109.8 K | 58.59
111.76 K | 58.92
113.7 K | 59.27
115.63 K | 59.65
117.53 K | 60.03
119.42 K | 60.44
121.29 K | 60.86
123.15 K | 61.3
124.99 K | 61.76
126.82 K | 62.23
128.63 K | 62.72
130.43 K | 63.22
132.22 K | 63.73
133.99 K | 64.25
135.76 K | 64.8
137.51 K | 65.35
139.25 K | 65.91
140.98 K | 66.49
142.69 K | 67.08
144.4 K | 67.68
146.1 K | 68.29
147.79 K | 68.91
149.46 K | 69.55
151.13 K | 70.19
152.79 K | 70.84
154.44 K | 71.5
156.08 K | 72.18
157.72 K | 72.86
159.35 K | 73.55
160.97 K | 74.25
162.58 K | 74.96
164.18 K | 75.68
165.77 K | 76.4
167.35 K | 77.13
168.92 K | 77.86
170.49 K | 78.61
172.04 K | 79.36
173.59 K | 80.11
175.13 K | 80.88
176.66 K | 81.65
178.19 K | 82.42
179.71 K | 83.2
181.22 K | 83.99
182.72 K | 84.78
184.23 K | 85.59
185.73 K | 86.39
187.22 K | 87.21
188.71 K | 88.03
190.19 K | 88.85
191.66 K | 89.68
193.13 K | 90.52
194.59 K | 91.35
196.06 K | 92.2
197.5 K | 93.04
200.08 K | 94.57
204.09 K | 96.99
207.23 K | 98.92
209.37 K | 100.26
211.49 K | 101.59
213.62 K | 102.95
217.8 K | 105.66
219.85 K | 107.01
221.9 K | 108.37
223.94 K | 109.74
225.95 K | 111.1
227.91 K | 112.43
229.9 K | 113.8
231.78 K | 115.1
233.73 K | 116.46
235.64 K | 117.81
237.61 K | 119.2
239.52 K | 120.56
241.4 K | 121.91
243.27 K | 123.26
245.17 K | 124.63
247.09 K | 126.04
248.98 K | 127.43
250.89 K | 128.84
252.77 K | 130.24
254.65 K | 131.65
256.51 K | 133.04
258.38 K | 134.45
260.23 K | 135.86
262.08 K | 137.27
263.92 K | 138.68
265.74 K | 140.08
267.58 K | 141.5
269.4 K | 142.91
271.2 K | 144.31
273 K | 145.72
274.79 K | 147.12
276.55 K | 148.51
278.32 K | 149.91
280.09 K | 151.31
281.85 K | 152.71
283.59 K | 154.09
285.32 K | 155.48
287.04 K | 156.85
288.74 K | 158.22
290.44 K | 159.59
292.1 K | 160.93
293.75 K | 162.27
295.39 K | 163.6
297.06 K | 164.95
298.72 K | 166.31
300.37 K | 167.65
302.01 K | 168.99
303.64 K | 170.32
305.27 K | 171.65
306.88 K | 172.98
310.09 K | 175.62
311.68 K | 176.93
313.25 K | 178.21
314.76 K | 179.47
316.65 K | 181.03
319.26 K | 183.18
322.04 K | 185.48
324.78 K | 187.75
327.48 K | 189.98
330.16 K | 192.2
332.81 K | 194.4
335.45 K | 196.59
338.09 K | 198.77
340.74 K | 200.97
343.44 K | 203.2
346.14 K | 205.43
348.74 K | 207.58
351.31 K | 209.7
353.85 K | 211.78
356.38 K | 213.86
358.86 K | 215.9
361.34 K | 217.92
363.79 K | 219.91
366.21 K | 221.88
368.6 K | 223.82
370.97 K | 225.73
375.64 K | 229.5
378 K | 231.38
